Test results: patent US20240327459A1, “PEPTIDE FRAGMENTS FOR TREATMENT OF DIABETES” (Follicum AB, priority 2018, published 2024)
Entries after “also recorded” stand apart in the source; their conditions may differ.

Assays:
[1] = test system: isolated mouse islets; assay: Insulin and glucagon secretion from isolated mouse islets (Example 12); format: cell-based
Method: Twelve-week-old male C57/bl6 mice were euthanized with isoflurane and cervical dislocation. After clamping the hepatic ducts, 3 ml of 0.9 U/ml collagenase P was injected into the bile duct to inflate the pancreas. The pancreas was then removed and digested for 19 min at 37° C. The samples were vigorously shaken to disrupt the tissue. The digest was quickly transferred into ice cold Hank's Balanced Salts Solution with Ca^2+ and Mg^2+. The suspension was allowed to sit for 8 min to allow the islet to sink, and the islets were washed in the same manner four times. The islets were then handpicked and sorted according to size.
Freshly isolated islets were seeded in groups of 5 in a 96-well plate and preincubated for 1 h at 37° C. in a Krebs-Ringer bicarbonate buffer (pH 7.4). The islets were incubated for 1 h at 37° C. in Krebs-Ringer buffered solution supplemented with 0.6 or 6 μM FOL-014 or 100 nM GLP-1 or left unsupplemented for control. Immediately after incubation, the medium was removed for assays of insulin and glucagon using Mercodia's ELISA kits. The effect of FOL-014 on insulin (FIGS. 8A and B) and glucagon (FIGS. 8C and D) secretion from isolated mouse islets was measured in the presence of low glucose (2.8 mM; FIGS. 8A and C) or high glucose (16.7 mM; FIGS. 8B and D) concentrations.

[2] = test system: wild type C57bl/6 mice; assay: Intraperitoneal glucose tolerance test (IPGTT); format: in vivo, mouse; conditions: 15 min before 2 g glucose/kg ip, vs saline control
Method: Whole blood was collected for glucose and insulin measurements from 10-week-old wild type maleC57bl/6 mice. After a 4 hour fast, the mice were divided into three groups and given an intraperitoneal injection (ip) of either saline, 30 nmol/kg peptide (FIG. 9A) or 200 nmol/kg peptide (FIG. 9B). 15 min after the FOL-014 or saline (control) injections, the mice were administered 2 g of glucose/kg ip. Blood glucose concentrations were measured at 5, 15, 30, 45 and 60 minutes after the glucose injection. Statistical calculations were performed using student's t-test. […] In addition, the difference was significant at 15, 30 and 45 minutes.

[3] = test system: human pancreatic β-cell line 1.2B4; assay: Insulin secretion from 1.2B4 human β-cells; format: cell-based; conditions: 100 nM peptide, 16.7 mM glucose, 60 minutes
Method: In order to test the effect of FOL-014 and FOL-056 in human cells, the human pancreatic β-cell line 1.2B4 were cultured at 37° C. and 5% CO2 in RPMI 1640 supplemented with 10% fetal bovine serum, 50 IU/mL penicillin, 50 mg/L streptomycin, 1 mM L-glutamine. 1.2B4 cells were seeded in 24-well plates in RPMI medium and following overnight incubation, the medium was removed before pre-incubation for 40 min at 37° C. in Krebs-Ringer bicarbonate buffer, pH 7.4, supplemented with 10 mM HEPES, 0.1% bovine serum albumin and 1.0 mM glucose. Following pre-incubation, the buffer was exchanged with fresh Krebs-Ringer buffer as described above and supplemented with specific glucose concentrations, 1 mM or 16.7 mM. FOL-014, FOL-056 or Liraglutide was added at a concentration of 100 nM in the presence of 16.7 mM glucose. Immediately after 60 minutes incubation at 37° C., an aliquot of the buffer was removed and frozen for subsequent insulin ELISA assay. (FIG. 18)

[4] = test system: mouse pancreatic islets; assay: Insulin secretion from isolated mouse pancreatic islets (Examples 5 and 7); format: cell-based; conditions: 60 min
Method: Mouse pancreatic islets were isolated from 8-week old C57BL/6J male mice (Taconic). Mice were sacrificed by an overdose of isoflurane and cervical dislocation. 3 ml of 0.9 U/ml collagenase P was injected into the pancreatic duct to inflate the pancreas. The Pancreas was then removed and collagen digested for 19 min at 37° C. The samples Were vigorously shaken to disrupt the tissue. The digest was transferred into ice cold Hank's Balanced Salt Solution (HBSS) with Ca^2+ and Mg^2+. The suspension was allowed to sit for 10 min to allow the islet to sink, and the islets were washed in fresh HBSS four times. The islets were then hand-picked and sorted according to size. Islets (n=3 per well in a 96 well plate) were pre-incubated in KRB buffer during 10 min 37° C., pH 7.4, supplemented with 10 mM HEPES, 0.1% bovine serum albumin. After pre-incubation, the buffer was changed and islets were incubated at different test conditions in new KRB buffer with 0.1% bovine serum albumin (non-treated ctrl, FOL-005 peptide, or GLP-1) for 60 min at 37° C. Immediately after incubation, an aliquot of the buffer was removed and frozen for subsequent assay of insulin.
Mouse pancreatic islets were isolated from 8-week old C57BL/6J male mice as described under example 5. The islets were then hand-picked and sorted according to size. Islets (n=5 per well in a 96 well plate) were pre-incubated in 200 μl KRB buffer during 10 min 37° C., pH 7.4, supplemented with 10 mM HEPES, 0.1% bovine serum albumin. Following pre-incubation, the buffer was changed and islets were incubated in different test conditions in new KRB buffer with 0.1% bovine serum albumin (non-treated ctrl, FOL-014 peptide, and GLP-1) for 60 min at 37° C. Immediately after incubation, an aliquot of the buffer was removed and frozen for subsequent assay of insulin.

[5] = low glucose (2.8 mM), FOL-014 0.6 or 6 μM

KPLAEIDSIELSYGIK (MISC_FEATURE - peptide, FOL-014)
insulin secretion ([1]; high glucose (16.7 mM), 600 nM): significantly increased insulin secretion | insulin secretion ([1]; high glucose (16.7 mM), 6 μM): but not 6 μM FOL-014, significantly increased insulin secretion | glucagon secretion ([1]; high glucose (16.7 mM), both concentrations (0.6 and 6 μM)): efficiently reduced glucagon secretion | glucagon secretion [1, 5]: reduced glucagon secretion as compared with control and GLP-1 | insulin secretion [1, 5]: did not increase insulin secretion | plasma glucose levels ([2]; 30 nmol/kg ip): lowered the plasma glucose levels with a significant effect at 45 minutes after the glucose injection | plasma glucose levels ([2]; 200 nmol/kg ip): significantly lowered the plasma glucose levels as compared to the control when measured as area under the curve; also recorded: significantly lowered the plasma glucose levels as compared to the control at 15 minutes, 30 minutes and 45 minutes | insulin secretion [3]: increase the insulin secretion capacity in 1.2B4 human β-cells; also recorded: significantly increased the insulin secretion as compared with cells treated with an un-supplemented high glucose buffer | insulin secretion ([4]; Example 7, 0.6 μM): did not affect insulin secretion; also recorded: had no effect on insulin secretion | insulin secretion ([4]; Example 7, 6 μM, vs unstimulated control islets): secreted more insulin compared to unstimulated control islets
